Assay results: patent US20230165252A1, “ACTIVE COMPOUND COMBINATIONS” (Bayer Aktiengesellschaft, priority 2020, published 2023)
Several values for one entry are separate records, joined by “and”; a condition that tells them apart may be missing. Identical values can stand only once. Like-named read-outs stand apart in the source and are kept apart here.

Tests used:
Type in all cases: cell-based
Cercospora beticola = experiment: in vitro-Test with Cercospora beticola (microtiter growth inhibition); settings: alone
Experimental: (§1) The degree of efficacy expressed in % is denoted: 0% means an efficacy, which corresponds to that of the control, while an efficacy of 100% means that no disease is observed.
(§2) If the actual fungicidal activity exceeds the calculated value, then the activity of the combination is super-additive, i.e. a synergistic effect exists. In this case, the efficacy, which was actually observed, must be greater than the value for the expected efficacy (E), that was calculated from the abovementioned formula.
(§3) Example: In Vitro-Test with Fungal Microorganisms
(§4) Wells of 96-well microtiter plates are filled with 10 μl of a preparation of test compound or compound combination in methanol+emulsifier alkylaryl-polyglycol-ether. Thereafter, the solvent is evaporated in a hood. At the next step, 100 μl of liquid potato dextrose medium is given into each well, that has been amended with an appropriate concentration of spores or mycelium suspension of the test fungus.
(§5) With the aid of a photometer, the extinction in all wells is measured at the wavelength of 620 nm.
(§6) The microtiter plates are incubated at 20° C. and 85% relative humidity. The inhibition of growth is determined again photometrically 3-5 days after the application. Efficacy is calculated in relation to the untreated control, 0% efficacy means fungal growth as high as in untreated control while 100% efficacy means no fungal growth is measured.

Cordana musae = experiment: in vitro-Test with Cordana musae (microtiter growth inhibition); settings: single substance
Experimental: as §1, §2, §3, §4, §5, §6

Diaporthe citri = experiment: in vitro-Test with Diaporthe citri (microtiter growth inhibition)
Experimental: as §2, §3, §4, §5, §6

Alternaria alternate = experiment: in vitro-Test with Alternaria alternate (microtiter growth inhibition)
Experimental: as §1, §2, §3, §4, §5, §6

Botrytis cinerea = experiment: in vitro-Test with Botrytis cinerea (microtiter growth inhibition); settings: applied alone
Experimental: as §1, §2, §3, §4, §5, §6

Parastagonospora nodorum = experiment: in vitro-Test with Parastagonospora nodorum (microtiter growth inhibition)
Experimental: as §1, §2, §3, §4, §5, §6

[1] = tested on: Ustilago segetum var. avenae; experiment: in vitro-Test with Ustilago segetum var. avenae (microtiter growth inhibition); settings: single compound
Experimental: as §1, §2, §3, §4, §5, §6

## N#Cc1ccccc1NC(=O)c1snc(Cl)c1Cl [isotianil]
Cercospora beticola; 0.8 ppm
  Efficacy %: 17%
Cercospora beticola; 4 ppm
  Efficacy %: 17%
Cercospora beticola; 20 ppm
  Efficacy %: 12%
Cercospora beticola; 100 ppm
  Efficacy %: 29%
Cordana musae; 20 ppm
  Efficacy: 3%
Cordana musae; 100 ppm
  Efficacy: 16%
Diaporthe citri; 0.8 ppm
  Efficacy: 0%
Diaporthe citri; 4 ppm
  Efficacy: 24%
Diaporthe citri; 20 ppm
  Efficacy: 0%
Diaporthe citri; 100 ppm
  Efficacy: 0%
Diaporthe citri; applied alone, 0.8 ppm
  Efficacy: 12%
Diaporthe citri; applied alone, 4 ppm
  Efficacy: 19% and 23%
Diaporthe citri; applied alone, 20 ppm
  Efficacy: 5% and 14%
Diaporthe citri; applied alone, 100 ppm
  Efficacy: 5%
Alternaria alternate; 4 ppm, alone
  Efficacy %: 0%
Alternaria alternate; 20 ppm, alone
  Efficacy %: 7%
Alternaria alternate; 100 ppm, alone
  Efficacy %: 0%

## CC(O)(Cn1cncn1)c1ccc(Oc2ccc(Cl)cc2)cc1C(F)(F)F (stereo not shown) [mefentrifluconazole]
Cercospora beticola; 0.04 ppm
  Efficacy %: 100%
Cercospora beticola; 0.2 ppm
  Efficacy %: 100%
Cordana musae; 0.008 ppm
  Efficacy: 0%
Cordana musae; 1.0 ppm
  Efficacy: 100%
Botrytis cinerea; 0.04 ppm
  Efficacy: 36%
Botrytis cinerea; 0.2 ppm
  Efficacy: 63%
Botrytis cinerea; 1.0 ppm
  Efficacy: 100%
Parastagonospora nodorum; 0.008 ppm
  Efficacy: 85%
Parastagonospora nodorum; 0.04 ppm
  Efficacy: 97%
Parastagonospora nodorum; 0.2 ppm
  Efficacy: 99%
Parastagonospora nodorum; 1.0 ppm
  Efficacy: 100%
Diaporthe citri; applied alone, 0.04 ppm
  Efficacy: 85%
Diaporthe citri; applied alone, 0.2 ppm
  Efficacy: 100%
Diaporthe citri; applied alone, 1.0 ppm
  Efficacy: 100%
Alternaria alternate; 0.008 ppm, alone
  Efficacy %: 0%
Alternaria alternate; 1.0 ppm, alone
  Efficacy %: 100%
[1]; 0.008 ppm
  Efficacy %: 5%
[1]; 0.2 ppm
  Efficacy %: 67%
[1]; 1.0 ppm
  Efficacy %: 100%

## CCCOc1nc2ccc(I)cc2c(=O)n1CCC [proquinazid]
Cordana musae; 0.080 ppm
  Efficacy: 0%
Cordana musae; 0.4 ppm
  Efficacy: 0%
Cordana musae; 2 ppm
  Efficacy: 0%
Botrytis cinerea; 0.4 ppm
  Efficacy: 0%
Botrytis cinerea; 2 ppm
  Efficacy: 0%
Botrytis cinerea; 10 ppm
  Efficacy: 0%
Diaporthe citri; applied alone, 0.4 ppm
  Efficacy: 11%
Diaporthe citri; applied alone, 2 ppm
  Efficacy: 0%
Alternaria alternate; 0.08 ppm, alone
  Efficacy %: 0%
Alternaria alternate; 0.4 ppm, alone
  Efficacy %: 0%
Alternaria alternate; 2 ppm, alone
  Efficacy %: 0%
Alternaria alternate; 10 ppm, alone
  Efficacy %: 0%

## OC(Cc1ccccc1Cl)(Cn1nc[nH]c1=S)C1(Cl)CC1 (stereo not shown) [prothioconazole]
Cercospora beticola; Cercospora beticola, 0.008 ppm, read-out: Efficacy %
  inhibition of growth at 0.008 ppm: 0%
Cercospora beticola; Cercospora beticola, 0.04 ppm, read-out: Efficacy %
  inhibition of growth at 0.04 ppm: 88%
Cordana musae; Neocordana musae, 0.008 ppm, read-out: Efficacy
  inhibition of growth at 0.008 ppm: 0%
Cordana musae; Neocordana musae, 0.04 ppm, read-out: Efficacy
  inhibition of growth at 0.04 ppm: 64%
Cordana musae; Neocordana musae, 0.2 ppm, read-out: Efficacy
  inhibition of growth at 0.2 ppm: 100%
Alternaria alternate; Alternaria, 0.008 ppm, alone, read-out: Efficacy %
  inhibition of growth at 0.008 ppm: 0%
Alternaria alternate; Alternaria, alone, read-out: Efficacy %
  inhibition of growth at 0.2 ppm: 100%
Alternaria alternate; Alternaria, 1.0 ppm, alone, read-out: Efficacy %
  inhibition of growth at 1 ppm: 100%
Alternaria alternate; Alternaria, applied alone, 0.04 ppm, read-out: Efficacy
  inhibition of growth at 0.04 ppm: 32%
Alternaria alternate; Alternaria, applied alone, read-out: Efficacy
  inhibition of growth at 0.2 ppm: 99%
Alternaria alternate; Alternaria, applied alone, 1.0 ppm, read-out: Efficacy
  inhibition of growth at 1 ppm: 100%

## Cc1cc(C)nc(Nc2ccccc2)n1 [pyrimethanil]
Cercospora beticola; Cercospora beticola, 0.8 ppm, read-out: Efficacy %
  inhibition of growth at 0.8 ppm: 0%
Cercospora beticola; Cercospora beticola, 20 ppm, read-out: Efficacy %
  inhibition of growth at 20 ppm: 100%
Cordana musae; Neocordana musae, 0.8 ppm, read-out: Efficacy
  inhibition of growth at 0.8 ppm: 9%
Cordana musae; Neocordana musae, 20 ppm, read-out: Efficacy
  inhibition of growth at 20 ppm: 15%
Botrytis cinerea; 0.8 ppm
  Efficacy: 96%
Botrytis cinerea; 4 ppm
  Efficacy: 99%
Parastagonospora nodorum; 0.8 ppm
  Efficacy: 100%
Parastagonospora nodorum; 4 ppm
  Efficacy: 100%
Diaporthe citri; Diaporthe citri, applied alone, 4 ppm, read-out: Efficacy
  inhibition of growth at 4 ppm: 94%
Alternaria alternate; Alternaria, 0.8 ppm, alone, read-out: Efficacy %
  inhibition of growth at 0.8 ppm: 88%
Alternaria alternate; Alternaria, 4 ppm, alone, read-out: Efficacy %
  inhibition of growth at 4 ppm: 99%
Alternaria alternate; Alternaria, 20 ppm, alone, read-out: Efficacy %
  inhibition of growth at 20 ppm: 100%
Alternaria alternate; Alternaria, applied alone, 0.8 ppm, read-out: Efficacy
  inhibition of growth at 0.8 ppm: 100%
Alternaria alternate; Alternaria, applied alone, 4 ppm, read-out: Efficacy
  inhibition of growth at 4 ppm: 100%
Alternaria alternate; Alternaria, applied alone, 20 ppm, read-out: Efficacy
  inhibition of growth at 20 ppm: 100%

## mancozeb [Compound 5.013]
Cercospora beticola; 0.4 ppm
  Efficacy %: 0%
Cercospora beticola; 2 ppm
  Efficacy %: 100%
Cercospora beticola; 10 ppm
  Efficacy %: 100%
Diaporthe citri; 0.4 ppm
  Efficacy: 1%
Diaporthe citri; 2 ppm
  Efficacy: 45%
Diaporthe citri; 10 ppm
  Efficacy: 100%
Diaporthe citri; applied alone, 0.080 ppm
  Efficacy: 0% and 3%
Diaporthe citri; applied alone, 0.4 ppm
  Efficacy: 0%
Diaporthe citri; applied alone, 2 ppm
  Efficacy: 52% and 53%
Diaporthe citri; applied alone, 10 ppm
  Efficacy: 100%
Alternaria alternate; applied alone, 2 ppm
  Efficacy: 6%
Alternaria alternate; applied alone, 10 ppm
  Efficacy: 95%
[1]; 0.08 ppm
  Efficacy %: 1%
[1]; 2 ppm
  Efficacy %: 5%
[1]; 10 ppm
  Efficacy %: 100%

## propineb
Cordana musae; 0.8 ppm
  Efficacy: 0%
Diaporthe citri; 4 ppm
  Efficacy: 23%
Diaporthe citri; 20 ppm
  Efficacy: 100%
Diaporthe citri; 100 ppm
  Efficacy: 97%
Diaporthe citri; applied alone, 0.8 ppm
  Efficacy: 0%
Diaporthe citri; applied alone, 20 ppm
  Efficacy: 98% and 100%
Diaporthe citri; applied alone, 100 ppm
  Efficacy: 100%
Alternaria alternate; 0.8 ppm, alone
  Efficacy %: 18% and 11%
Alternaria alternate; 4 ppm, alone
  Efficacy %: 32% and 21%
Alternaria alternate; 20 ppm, alone
  Efficacy %: 66% and 71%
Alternaria alternate; 100 ppm, alone
  Efficacy %: 92%
Alternaria alternate; applied alone, 4 ppm
  Efficacy: 56%
Alternaria alternate; applied alone, 20 ppm
  Efficacy: 73%
Alternaria alternate; applied alone, 100 ppm
  Efficacy: 96%
[1]; 0.8 ppm
  Efficacy %: 4% and 6%
[1]; 20 ppm
  Efficacy %: 100%
[1]; 100.00 ppm
  Efficacy %: 79%
